Counter-ions that a name gives are not always drawn.

In general, melting point refers to the temperature of the solid-liquid transition. Molecule `N=c1n(Cc2ccc(F)c(F)c2)c2ccccc2n1-c1ccc(F)c(F)c1` (as salt: hydrobromid) [Example 13, 1-(3,4-Difluorobenzyl)-3-(3,4-difluorophenyl)-1,3-dihydrobenzoimidazol-2-ylideneamine] returned a melting point of 259 to 260 °C. Molecule `Fc1ccc(Cn2c(Nc3ccc(F)c(F)c3)nc3ccccc32)cc1F` (as salt: hydrochloride) [Example 5, N-[1-(3,4-Difluorobenzyl)benzimidazol-2-yl]-3,4-difluoroaniline] showed a melting point of 236 to 238 °C. The figure for `N=c1n(Cc2ccc(Cl)cc2)c2ccccc2n1Cc1ccc(Cl)cc1` [Example 1, 1,3-Bis(4-chlorobenzyl)-1,3-dihydrobenzoimidazol-2-ylideneamine] is 185 to 187 °C. The figure for `N=c1n(Cc2ccc(Cl)c(Cl)c2)c2ccccc2n1Cc1ccc(Cl)c(Cl)c1` [Example 2, 1,3-Bis(3,4-dichlorobenzyl)-1,3-dihydrobenzoimidazol-2-ylideneamine] is 145 to 146 °C; for `N=c1n(Cc2ccc(F)cc2)c2ccccc2n1Cc1ccc(F)cc1` [Example 3, 1,3-Bis(4-fluorobenzyl)-1,3-dihydrobenzoimidazol-2-ylideneamine] it is 148 to 150 °C; for `N=c1n(Cc2ccc(F)c(F)c2)c2ccccc2n1Cc1ccc(F)c(F)c1` [Example 4, 1,3-Bis(3,4-difluorobenzyl)-1,3-dihydrobenzoimidazol-2-ylideneamine] it is 114 to 117 °C. With `Fc1ccc(Cn2c(Nc3ccc(C(F)(F)F)cc3)nc3ccccc32)cc1F` [Example 7, N-[1-(3,4-Difluorobenzyl)benzimidazol-2-yl]-4-trifluoromethylaniline], the melting point was 167 to 170 °C. The figure for `FC(F)(F)c1cc(Cn2c(Nc3ccc(Cl)c(C(F)(F)F)c3)nc3ccccc32)ccc1Cl` [Example 8, N-[1-(4-Chloro-3-trifluoromethylbenzyl)benzimidazol-2-yl]-4-chloro-3-trifluoromethylaniline] is 88 to 92 °C; for `Fc1ccc(CNc2nc3ccccc3n2Cc2ccc(Cl)c(C(F)(F)F)c2)cc1F` [Example 9, N-[1-(4-Chloro-3-trifluoromethylbenzyl)benzimidazol-2-yl]-3,4-difluorobenzylamine] it is 158 to 161 °C; for `N=c1n(Cc2cc(F)cc(F)c2)c2ccccc2n1Cc1cc(F)cc(F)c1` [Example 12, 1,3-Bis(3,5-difluorobenzyl)-1,3-dihydrobenzoimidazol-2-ylideneamine] it is 144 to 145 °C. Consider `N=c1n(Cc2ccc(F)c(F)c2)c2ccc(F)cc2n1Cc1ccc(F)c(F)c1` [Example 15, 1,3-Bis(3,4-difluorobenzyl)-5-fluoro-1,3-dihydrobenzoimidazol-2-ylideneamine], for which the melting point was > 166 °C (dec.). As for `N=c1n(Cc2cccc(C(F)(F)F)c2)c2ccccc2n1Cc1cccc(C(F)(F)F)c1` [Example 16, 1,3-Bis[3-(trifluoromethyl)benzyl]-1,3-dihydrobenzoimidazol-2-ylideneamine], the figure is 175 to 177 °C. As for `N=c1n(Cc2ccc(F)c(F)c2)c2ccc(Br)cc2n1Cc1ccc(F)c(F)c1` [Example 17, 1,3-Bis(3,4-difluorobenzyl)-5-bromo-1,3-dihydrobenzoimidazol-2-ylideneamine], the figure is 88 to 89.5 °C; as for `Fc1ccc(CNc2nc3ccccc3n2-c2ccc(F)c(F)c2)cc1F` [Example 19, (3,4-Difluorobenzyl)-[1-(3,4-difluorophenyl)-1H-benzoimidazol-2-yl]amine], 158.5 to 159.5 °C; as for `Fc1ccc(Nc2nc3ccccc3n2-c2ccc(F)c(F)c2)cc1F` [Example 20, (3,4-Difluorophenyl)-[1-(3,4-difluorophenyl)-1H-benzoimidazol-2-yl]amine], 115 to 117 °C.

These data come from US7842817B2, “2-amino benzimidazole derivatives and their use as modulators of small-conductance calcium-activated potassium channels” (Neurosearch A/S, priority 2005, dated 2010).
